Consider 3 compounds from ChEMBL document CHEMBL3244314, “Synthesis and xanthine oxidase inhibitory analysis of 1H-pyrrolo[3,2-c]pyridine-4,6(5H,7H)-dione (3,7-dideazaxanthine) and two of its derivatives” (J Med Chem, 1978).

The target in series [1] is T1, Xanthine dehydrogenase/oxidase (Bos taurus, UniProt P80457). In words: Noncompetitive inhibition of bovine buttermilk xanthine oxidase by Lineweaver-burk plot analysis. As to conditions: read-out: Kis; call rule not given here.
Series [2] has as its target T1, Xanthine dehydrogenase/oxidase. The series can be described thus: Inhibition of bovine buttermilk xanthine oxidase by spectrophotometric analysis. The note with it: cattle.

T1 sequence (P80457 whole entry): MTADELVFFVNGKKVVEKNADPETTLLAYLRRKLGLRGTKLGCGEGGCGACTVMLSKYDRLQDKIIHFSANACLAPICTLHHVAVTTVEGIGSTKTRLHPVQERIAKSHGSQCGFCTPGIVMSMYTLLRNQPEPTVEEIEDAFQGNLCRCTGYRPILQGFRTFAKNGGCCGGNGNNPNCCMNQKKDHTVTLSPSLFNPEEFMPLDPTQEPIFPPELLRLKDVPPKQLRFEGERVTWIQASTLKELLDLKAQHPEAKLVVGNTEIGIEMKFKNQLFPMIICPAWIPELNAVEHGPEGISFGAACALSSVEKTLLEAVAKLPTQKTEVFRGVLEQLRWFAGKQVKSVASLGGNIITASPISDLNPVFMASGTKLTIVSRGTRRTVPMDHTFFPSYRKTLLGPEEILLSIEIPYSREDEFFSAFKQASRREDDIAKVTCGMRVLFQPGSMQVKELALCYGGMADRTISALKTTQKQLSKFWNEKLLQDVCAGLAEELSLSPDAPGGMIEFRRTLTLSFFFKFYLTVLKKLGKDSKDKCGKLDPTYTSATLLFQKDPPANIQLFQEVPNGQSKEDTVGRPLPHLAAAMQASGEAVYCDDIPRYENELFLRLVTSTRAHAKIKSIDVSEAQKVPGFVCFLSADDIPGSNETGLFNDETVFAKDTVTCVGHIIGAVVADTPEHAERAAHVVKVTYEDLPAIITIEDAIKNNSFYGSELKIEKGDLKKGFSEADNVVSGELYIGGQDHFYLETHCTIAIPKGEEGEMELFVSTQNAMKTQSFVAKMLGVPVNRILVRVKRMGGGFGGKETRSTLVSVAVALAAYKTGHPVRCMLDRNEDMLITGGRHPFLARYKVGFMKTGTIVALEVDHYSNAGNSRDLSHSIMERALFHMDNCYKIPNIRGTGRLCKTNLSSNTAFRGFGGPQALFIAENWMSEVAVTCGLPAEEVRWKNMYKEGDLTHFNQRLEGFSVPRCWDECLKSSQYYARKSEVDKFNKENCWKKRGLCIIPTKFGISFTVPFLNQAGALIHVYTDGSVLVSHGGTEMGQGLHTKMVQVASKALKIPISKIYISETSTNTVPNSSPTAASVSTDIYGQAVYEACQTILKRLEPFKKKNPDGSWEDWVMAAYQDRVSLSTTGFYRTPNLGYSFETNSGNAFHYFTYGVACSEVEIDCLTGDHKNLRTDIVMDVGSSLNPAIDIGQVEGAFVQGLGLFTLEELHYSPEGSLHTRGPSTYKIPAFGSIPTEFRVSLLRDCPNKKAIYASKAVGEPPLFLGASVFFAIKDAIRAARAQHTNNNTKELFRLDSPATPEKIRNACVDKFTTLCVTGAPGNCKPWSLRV

Turning to `O=C1Cc2[nH]ccc2C(=O)N1`, the Ki in series [1] is 92.5 µM.

As to `CN1C(=O)Cc2[nH]ccc2C1=O`, in series [1], the Ki was found to be 120 µM. For `O=C1Cc2[nH]ccc2C(=O)O1`, in series [2], the “inhibition (INH)” value is given as “Not Active”.
